From ChEMBL document CHEMBL3044575, “Synthesis, anti-inflammatory activity, and QSAR study of some Schiff bases derived from 5-mercapto-3-(4-pyridyl)-4H-1,2,4-triazol-4-yl-thiosemicarbazide” (2013)

What was measured:
Format in all cases: functional
[1] = system: Rattus norvegicus; test: Anti-inflammatory activity in Albino Rattus norvegicus (rat) assessed as inhibition of carrageenan-induced paw edema at 20 mg/kg, po administered 1 hr prior to carrageenan challenge measured after 2 hr by mercury displacement technique
[2] = system: Rattus norvegicus; test: Anti-inflammatory activity in Albino Rattus norvegicus (rat) assessed as inhibition of carrageenan-induced paw edema at 20 mg/kg, po administered 1 hr prior to carrageenan challenge measured after 5 hr by mercury displacement technique
[3] = system: Rattus norvegicus; test: Anti-inflammatory activity in Albino Rattus norvegicus (rat) assessed as inhibition of carrageenan-induced paw edema at 20 mg/kg, po administered 1 hr prior to carrageenan challenge measured after 1 hr by mercury displacement technique
[4] = system: Rattus norvegicus; test: Anti-inflammatory activity in Albino Rattus norvegicus (rat) assessed as inhibition of carrageenan-induced paw edema at 10 mg/kg, po administered 1 hr prior to carrageenan challenge measured after 2 hr by mercury displacement technique
[5] = system: Rattus norvegicus; test: Anti-inflammatory activity in Albino Rattus norvegicus (rat) assessed as inhibition of carrageenan-induced paw edema at 10 mg/kg, po administered 1 hr prior to carrageenan challenge measured after 1 hr by mercury displacement technique
[6] = system: Rattus norvegicus; test: Anti-inflammatory activity in Albino Rattus norvegicus (rat) assessed as inhibition of carrageenan-induced paw edema at 10 mg/kg, po administered 1 hr prior to carrageenan challenge measured after 5 hr by mercury displacement technique

SMILES | inhibition in vivo at 20 mg/kg [1] [%] | inhibition in vivo at 20 mg/kg [2] [%] | inhibition in vivo at 20 mg/kg [3] [%] | inhibition in vivo at 10 mg/kg [4] [%] | inhibition in vivo at 10 mg/kg [5] [%] | inhibition in vivo at 10 mg/kg [6] [%]
O=[N+]([O-])c1ccc(/C=N/NC(=S)Nn2c(S)nnc2-c2ccncc2)cc1 | 34.5 | 41.5 | 14.3 |  |  | 
S=C(N/N=C/c1ccccc1Cl)Nn1c(S)nnc1-c1ccncc1 | 62.5 | 67.3 | 39.1 |  |  | 
S=C(N/N=C/c1ccc(Cl)cc1)Nn1c(S)nnc1-c1ccncc1 | 69.6 | 76.9 | 45.5 |  |  | 
COc1cc(/C=N/NC(=S)Nn2c(S)nnc2-c2ccncc2)cc(OC)c1OC | 52.9 | 61.4 | 36.2 |  |  | 
COc1ccc(/C=N/NC(=S)Nn2c(S)nnc2-c2ccncc2)cc1O | 44.4 | 48.4 | 28 |  |  | 
COc1ccc2c(c1)c(CC(=O)O)c(C)n2C(=O)c1ccc(Cl)cc1 [INDOMETHACIN] |  |  |  | 73 | 52 | 84
